# From patent EP4722207A1, “OXOISOINDOLINYL-SUBSTITUTED TETRAHYDROPYRIMIDINEDIONE DERIVATIVE AND USE THEREOF” (Gluetacs Therapeutics (Shanghai) Co., Ltd., priority 2023, dated 2024)
# Experiments:
# Format in all cases: cell-based
# Conditions in all cases: compounds at 50 nM and 500 nM, 24 hours
# WEE1 = target: T1, WEE1 (Homo sapiens, UniProt P30291+Q96SW2); assay: Western-blot assay, substrate protein degradation in hPBMCs: WEE1
# T1 construct: effects of the compounds of the present disclosure on the expression of target proteins in cells; endogenous in cells; host or cells: human PBMCs (hPBMCs)
# CK1α = target: T2, CK1α (Homo sapiens, UniProt P48729+Q96SW2); assay: Western-blot assay, substrate protein degradation in hPBMCs: CK1α
# T2 construct: effects of the compounds of the present disclosure on the expression of target proteins in cells; endogenous in cells; host or cells: human PBMCs (hPBMCs)
# IKZF3 = target: T3, IKZF3 (Homo sapiens, UniProt Q96SW2+Q9UKT9); assay: Western-blot assay, substrate protein degradation in hPBMCs: IKZF3
# T3 construct: effects of the compounds of the present disclosure on the expression of target proteins in cells; endogenous in cells; host or cells: human PBMCs (hPBMCs)
# GSPT1 = target: T4, GSPT1 (Homo sapiens, UniProt P15170+Q96SW2); assay: Western-blot assay, substrate protein degradation in hPBMCs: GSPT1
# T4 construct: effects of the compounds of the present disclosure on the expression of target proteins in cells; endogenous in cells; host or cells: human PBMCs (hPBMCs)
# IKZF1 = target: T5, IKZF1 (Homo sapiens, UniProt Q13422+Q96SW2); assay: Western-blot assay, substrate protein degradation in hPBMCs: IKZF1
# T5 construct: effects of the compounds of the present disclosure on the expression of target proteins in cells; endogenous in cells; host or cells: human PBMCs (hPBMCs)
# IKZF2 = target: T6, IKZF2 (Homo sapiens, UniProt Q96SW2+Q9UKS7); assay: Western-blot assay, substrate protein degradation in hPBMCs: IKZF2
# T6 construct: effects of the compounds of the present disclosure on the expression of target proteins in cells; endogenous in cells; host or cells: human PBMCs (hPBMCs)
# T6 sequence (Q9UKS7 whole entry): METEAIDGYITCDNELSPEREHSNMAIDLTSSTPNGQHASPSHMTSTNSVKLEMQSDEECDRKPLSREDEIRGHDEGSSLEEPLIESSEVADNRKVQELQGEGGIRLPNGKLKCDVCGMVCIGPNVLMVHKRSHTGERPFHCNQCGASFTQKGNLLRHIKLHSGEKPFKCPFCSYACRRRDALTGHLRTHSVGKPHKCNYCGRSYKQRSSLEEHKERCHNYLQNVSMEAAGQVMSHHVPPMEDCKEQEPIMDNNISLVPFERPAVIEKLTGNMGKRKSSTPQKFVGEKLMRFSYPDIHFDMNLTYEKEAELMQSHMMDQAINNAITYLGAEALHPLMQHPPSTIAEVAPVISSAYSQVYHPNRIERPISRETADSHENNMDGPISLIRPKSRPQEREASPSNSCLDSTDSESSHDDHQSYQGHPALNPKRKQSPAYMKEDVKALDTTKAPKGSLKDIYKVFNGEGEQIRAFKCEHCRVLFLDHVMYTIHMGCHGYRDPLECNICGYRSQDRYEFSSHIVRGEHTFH
# T6 sequence (Q96SW2 whole entry): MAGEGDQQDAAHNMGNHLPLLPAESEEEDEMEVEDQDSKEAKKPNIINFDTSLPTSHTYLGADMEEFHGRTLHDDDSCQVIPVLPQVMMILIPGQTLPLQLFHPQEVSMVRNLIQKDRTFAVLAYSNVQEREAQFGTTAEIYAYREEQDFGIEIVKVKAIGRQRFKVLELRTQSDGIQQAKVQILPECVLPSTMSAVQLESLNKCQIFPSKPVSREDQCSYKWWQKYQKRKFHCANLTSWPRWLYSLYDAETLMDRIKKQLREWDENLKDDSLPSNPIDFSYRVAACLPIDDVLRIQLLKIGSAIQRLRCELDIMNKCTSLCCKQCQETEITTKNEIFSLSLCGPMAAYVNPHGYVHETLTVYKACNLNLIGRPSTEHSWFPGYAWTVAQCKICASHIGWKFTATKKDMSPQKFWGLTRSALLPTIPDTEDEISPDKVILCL
# T6 sequence (Q16531 whole entry partner): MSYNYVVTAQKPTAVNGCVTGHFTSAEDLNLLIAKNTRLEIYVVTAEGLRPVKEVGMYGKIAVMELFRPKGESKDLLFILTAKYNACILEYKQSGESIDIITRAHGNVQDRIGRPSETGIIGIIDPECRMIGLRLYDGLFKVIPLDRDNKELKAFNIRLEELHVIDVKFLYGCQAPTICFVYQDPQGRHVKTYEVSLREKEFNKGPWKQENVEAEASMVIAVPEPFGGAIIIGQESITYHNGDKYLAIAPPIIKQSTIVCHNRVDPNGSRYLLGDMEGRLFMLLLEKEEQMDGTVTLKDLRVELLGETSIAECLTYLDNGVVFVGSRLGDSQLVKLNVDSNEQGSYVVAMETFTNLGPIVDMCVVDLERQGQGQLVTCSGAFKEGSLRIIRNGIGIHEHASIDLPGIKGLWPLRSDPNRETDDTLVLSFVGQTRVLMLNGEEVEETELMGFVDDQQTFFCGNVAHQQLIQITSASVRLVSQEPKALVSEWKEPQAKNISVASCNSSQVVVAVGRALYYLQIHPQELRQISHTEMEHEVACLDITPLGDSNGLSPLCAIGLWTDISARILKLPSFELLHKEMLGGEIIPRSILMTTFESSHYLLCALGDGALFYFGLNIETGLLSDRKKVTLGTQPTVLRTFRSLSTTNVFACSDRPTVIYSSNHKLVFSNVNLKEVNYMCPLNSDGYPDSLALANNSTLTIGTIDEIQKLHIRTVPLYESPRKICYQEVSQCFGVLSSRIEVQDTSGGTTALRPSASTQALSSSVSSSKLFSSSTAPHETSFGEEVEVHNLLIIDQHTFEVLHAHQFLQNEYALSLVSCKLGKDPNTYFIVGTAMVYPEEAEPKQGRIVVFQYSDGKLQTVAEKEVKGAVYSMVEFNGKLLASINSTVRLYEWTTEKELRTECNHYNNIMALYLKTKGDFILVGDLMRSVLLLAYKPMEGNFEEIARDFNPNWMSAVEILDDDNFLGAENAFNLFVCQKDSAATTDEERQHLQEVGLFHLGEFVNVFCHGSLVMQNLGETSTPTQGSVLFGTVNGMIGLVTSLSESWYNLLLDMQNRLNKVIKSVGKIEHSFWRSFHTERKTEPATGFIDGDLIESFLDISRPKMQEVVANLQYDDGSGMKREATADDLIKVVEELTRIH
# T4 sequence (P15170 whole entry): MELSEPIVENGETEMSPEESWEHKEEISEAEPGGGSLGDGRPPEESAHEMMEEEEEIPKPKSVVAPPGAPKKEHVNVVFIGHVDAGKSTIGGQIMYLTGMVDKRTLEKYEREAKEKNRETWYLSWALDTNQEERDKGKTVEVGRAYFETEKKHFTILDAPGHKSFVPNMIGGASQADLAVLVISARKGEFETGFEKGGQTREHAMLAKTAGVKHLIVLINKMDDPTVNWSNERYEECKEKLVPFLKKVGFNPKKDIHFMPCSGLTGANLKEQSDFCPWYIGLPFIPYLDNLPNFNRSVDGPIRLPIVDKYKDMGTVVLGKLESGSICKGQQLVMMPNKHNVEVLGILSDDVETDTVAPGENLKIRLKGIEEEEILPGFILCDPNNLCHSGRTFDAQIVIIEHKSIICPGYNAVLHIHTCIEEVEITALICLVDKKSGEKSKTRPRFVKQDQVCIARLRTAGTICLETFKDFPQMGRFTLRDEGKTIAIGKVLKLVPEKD
# T4 sequence (Q96SW2 whole entry): as the sequence (Q96SW2 whole entry) above
# T4 sequence (Q16531 whole entry partner): as the sequence (Q16531 whole entry partner) above
# T1 sequence (P30291 whole entry): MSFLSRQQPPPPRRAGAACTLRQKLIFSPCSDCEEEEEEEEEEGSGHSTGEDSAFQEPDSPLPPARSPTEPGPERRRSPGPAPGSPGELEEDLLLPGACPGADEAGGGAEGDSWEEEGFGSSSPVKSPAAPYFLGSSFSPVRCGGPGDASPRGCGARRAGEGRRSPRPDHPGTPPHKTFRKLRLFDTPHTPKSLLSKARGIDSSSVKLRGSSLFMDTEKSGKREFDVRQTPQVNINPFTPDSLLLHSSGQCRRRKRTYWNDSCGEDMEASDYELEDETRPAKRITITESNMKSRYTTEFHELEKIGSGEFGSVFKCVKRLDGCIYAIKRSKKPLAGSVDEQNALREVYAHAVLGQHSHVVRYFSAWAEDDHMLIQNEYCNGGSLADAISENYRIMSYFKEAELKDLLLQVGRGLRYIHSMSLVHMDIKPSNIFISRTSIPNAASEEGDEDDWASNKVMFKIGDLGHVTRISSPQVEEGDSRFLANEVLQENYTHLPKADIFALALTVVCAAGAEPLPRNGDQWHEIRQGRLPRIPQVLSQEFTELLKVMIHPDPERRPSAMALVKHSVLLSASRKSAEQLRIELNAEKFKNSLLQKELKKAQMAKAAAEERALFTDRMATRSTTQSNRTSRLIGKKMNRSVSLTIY
# T1 sequence (Q96SW2 whole entry): as the sequence (Q96SW2 whole entry) above
# T1 sequence (Q16531 whole entry partner): as the sequence (Q16531 whole entry partner) above
# T3 sequence (Q9UKT9 whole entry): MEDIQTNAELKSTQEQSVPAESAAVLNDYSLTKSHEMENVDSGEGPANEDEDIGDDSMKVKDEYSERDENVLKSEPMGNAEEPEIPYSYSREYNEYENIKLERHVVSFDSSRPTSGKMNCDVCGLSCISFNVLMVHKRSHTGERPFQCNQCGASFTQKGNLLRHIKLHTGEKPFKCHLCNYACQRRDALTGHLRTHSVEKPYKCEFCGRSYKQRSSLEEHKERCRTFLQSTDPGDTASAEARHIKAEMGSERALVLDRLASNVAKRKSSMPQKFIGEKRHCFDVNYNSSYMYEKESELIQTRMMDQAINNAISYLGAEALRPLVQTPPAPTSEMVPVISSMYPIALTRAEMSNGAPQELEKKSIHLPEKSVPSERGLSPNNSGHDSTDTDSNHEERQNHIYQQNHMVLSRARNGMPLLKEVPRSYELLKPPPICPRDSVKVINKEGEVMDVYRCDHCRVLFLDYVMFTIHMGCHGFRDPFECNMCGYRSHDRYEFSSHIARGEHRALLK
# T3 sequence (Q96SW2 whole entry): as the sequence (Q96SW2 whole entry) above
# T3 sequence (Q16531 whole entry partner): as the sequence (Q16531 whole entry partner) above
# T5 sequence (Q13422 whole entry): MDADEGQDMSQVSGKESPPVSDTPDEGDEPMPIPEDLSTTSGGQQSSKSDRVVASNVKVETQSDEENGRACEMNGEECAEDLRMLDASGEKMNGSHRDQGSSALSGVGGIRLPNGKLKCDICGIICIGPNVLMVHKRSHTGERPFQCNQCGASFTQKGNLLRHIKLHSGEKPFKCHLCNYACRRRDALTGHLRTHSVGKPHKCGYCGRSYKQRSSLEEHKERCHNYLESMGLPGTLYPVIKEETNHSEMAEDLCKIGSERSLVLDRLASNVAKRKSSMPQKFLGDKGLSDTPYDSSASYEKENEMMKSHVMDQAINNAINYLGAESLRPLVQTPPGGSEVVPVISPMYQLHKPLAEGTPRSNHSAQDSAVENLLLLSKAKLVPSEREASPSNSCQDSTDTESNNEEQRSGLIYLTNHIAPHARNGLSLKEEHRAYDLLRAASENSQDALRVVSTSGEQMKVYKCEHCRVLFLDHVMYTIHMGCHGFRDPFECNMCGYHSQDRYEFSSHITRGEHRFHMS
# T5 sequence (Q96SW2 whole entry): as the sequence (Q96SW2 whole entry) above
# T5 sequence (Q16531 whole entry partner): as the sequence (Q16531 whole entry partner) above
SMILES,WEE1 substrate protein remaining % (WEE1),CK1α substrate protein remaining % (CK1α),IKZF3 substrate protein remaining % (IKZF3),GSPT1 substrate protein remaining % (GSPT1),IKZF1 substrate protein remaining % (IKZF1),IKZF2 substrate protein remaining % (IKZF2)
"O=C1CCN(N2Cc3cc(CN4CCN(c5cc(F)ccc5F)CC4)ccc3C2=O)C(=O)N1 [GT-06779, 1-(5-((4-(2,5-difluorophenyl)piperazin-1-yl)methyl)-1-oxoisoindolin-2-yl)dihydropyrimidine-2,4(1H,3H)-dione]","B (""B"" is defined as 80%< substrate protein remaining %≤ 100%)","A (""A"" is defined as 0% ≤ substrate protein remaining % ≤ 80%)","B (""B"" is defined as 80%< substrate protein remaining %≤ 100%)","B (""B"" is defined as 80%< substrate protein remaining %≤ 100%)","B (""B"" is defined as 80%< substrate protein remaining %≤ 100%)","B (""B"" is defined as 80%< substrate protein remaining %≤ 100%)"
"O=C1CCN(N2Cc3cc(CN4CCN(c5c(F)cccc5F)CC4)ccc3C2=O)C(=O)N1 [GT-06780, 1-(5-((4-(2,6-difluorophenyl)piperazin-1-yl)methyl)-1-oxoisoindolin-2-yl)dihydropyrimidine-2,4(1H,3H)-dione]","B (""B"" is defined as 80%< substrate protein remaining %≤ 100%)","A (""A"" is defined as 0% ≤ substrate protein remaining % ≤ 80%)","B (""B"" is defined as 80%< substrate protein remaining %≤ 100%)","B (""B"" is defined as 80%< substrate protein remaining %≤ 100%)","B (""B"" is defined as 80%< substrate protein remaining %≤ 100%)","B (""B"" is defined as 80%< substrate protein remaining %≤ 100%)"
"O=C1CCN(N2Cc3cc(CN4CCN(c5ccc(F)c(F)c5)CC4)ccc3C2=O)C(=O)N1 [GT-06781, 1-(5-((4-(3,4-difluorophenyl)piperazin-1-yl)methyl)-1-oxoisoindolin-2-yl)dihydropyrimidine-2,4(1H,3H)-dione]","B (""B"" is defined as 80%< substrate protein remaining %≤ 100%)","A (""A"" is defined as 0% ≤ substrate protein remaining % ≤ 80%)","B (""B"" is defined as 80%< substrate protein remaining %≤ 100%)","A (""A"" is defined as 0% ≤ substrate protein remaining % ≤ 80%)","B (""B"" is defined as 80%< substrate protein remaining %≤ 100%)","B (""B"" is defined as 80%< substrate protein remaining %≤ 100%)"
"O=C1CCN(N2Cc3cc(CN4CCN(c5cc(F)cc(F)c5)CC4)ccc3C2=O)C(=O)N1 [GT-06782, 1-(5-((4-(3,5-difluorophenyl)piperazin-1-yl)methyl)-1-oxoisoindolin-2-yl)dihydropyrimidine-2,4(1H,3H)-dione]","B (""B"" is defined as 80%< substrate protein remaining %≤ 100%)","A (""A"" is defined as 0% ≤ substrate protein remaining % ≤ 80%)","B (""B"" is defined as 80%< substrate protein remaining %≤ 100%)","A (""A"" is defined as 0% ≤ substrate protein remaining % ≤ 80%)","B (""B"" is defined as 80%< substrate protein remaining %≤ 100%)","B (""B"" is defined as 80%< substrate protein remaining %≤ 100%)"
"O=C1CCN(N2C(=O)c3ccc(CN4CCN(c5ccc(Cl)cc5)CC4)cc3C2=O)C(=O)N1 [GT-06783, 5-((4-(4-chlorophenyl)piperazin-1-yl)methyl)-2-(2,4-dioxotetrahydropyrimidin-1(2H)-yl)isoindoline-1,3-dione]","B (""B"" is defined as 80%< substrate protein remaining %≤ 100%)","B (""B"" is defined as 80%< substrate protein remaining %≤ 100%)","A (""A"" is defined as 0% ≤ substrate protein remaining % ≤ 80%)","B (""B"" is defined as 80%< substrate protein remaining %≤ 100%)","B (""B"" is defined as 80%< substrate protein remaining %≤ 100%)","B (""B"" is defined as 80%< substrate protein remaining %≤ 100%)"
"O=C1CCN(N2C(=O)c3ccc(CN4CCN(c5ccc(Br)cc5)CC4)cc3C2=O)C(=O)N1 [GT-06784, 5-((4-(4-bromophenyl)piperazin-1-yl)methyl)-2-(2,4-dioxotetrahydropyrimidin-1(2H)-yl)isoindoline-1,3-dione]","B (""B"" is defined as 80%< substrate protein remaining %≤ 100%)","A (""A"" is defined as 0% ≤ substrate protein remaining % ≤ 80%)","B (""B"" is defined as 80%< substrate protein remaining %≤ 100%)","B (""B"" is defined as 80%< substrate protein remaining %≤ 100%)","B (""B"" is defined as 80%< substrate protein remaining %≤ 100%)","B (""B"" is defined as 80%< substrate protein remaining %≤ 100%)"
"O=C1CCN(N2C(=O)c3ccc(CN4CCN(c5cccc(F)c5F)CC4)cc3C2=O)C(=O)N1 [GT-06793, 5-((4-(2,3-difluorophenyl)piperazin-1-yl)methyl)-2-(2,4-dioxotetrahydropyrimidin-1(2H)-yl)isoindoline-1,3-dione]","B (""B"" is defined as 80%< substrate protein remaining %≤ 100%)","B (""B"" is defined as 80%< substrate protein remaining %≤ 100%)","B (""B"" is defined as 80%< substrate protein remaining %≤ 100%)","B (""B"" is defined as 80%< substrate protein remaining %≤ 100%)","B (""B"" is defined as 80%< substrate protein remaining %≤ 100%)","A (""A"" is defined as 0% ≤ substrate protein remaining % ≤ 80%)"
"O=C1CCN(N2C(=O)c3ccc(CN4CCN(c5c(F)cccc5F)CC4)cc3C2=O)C(=O)N1 [GT-06796, 5-((4-(2,6-difluorophenyl)piperazin-1-yl)methyl)-2-(2,4-dioxotetrahydropyrimidin-1(2H)-yl)isoindoline-1,3-dione]","A (""A"" is defined as 0% ≤ substrate protein remaining % ≤ 80%)","B (""B"" is defined as 80%< substrate protein remaining %≤ 100%)","B (""B"" is defined as 80%< substrate protein remaining %≤ 100%)","B (""B"" is defined as 80%< substrate protein remaining %≤ 100%)","B (""B"" is defined as 80%< substrate protein remaining %≤ 100%)","B (""B"" is defined as 80%< substrate protein remaining %≤ 100%)"
"O=C1CCN(N2C(=O)c3ccc(CN4CCN(c5ccc(F)c(F)c5)CC4)cc3C2=O)C(=O)N1 [GT-06797, 5-((4-(3,4-difluorophenyl)piperazin-1-yl)methyl)-2-(2,4-dioxotetrahydropyrimidin-1(2H)-yl)isoindoline-1,3-dione]","A (""A"" is defined as 0% ≤ substrate protein remaining % ≤ 80%)","B (""B"" is defined as 80%< substrate protein remaining %≤ 100%)","B (""B"" is defined as 80%< substrate protein remaining %≤ 100%)","B (""B"" is defined as 80%< substrate protein remaining %≤ 100%)","B (""B"" is defined as 80%< substrate protein remaining %≤ 100%)","B (""B"" is defined as 80%< substrate protein remaining %≤ 100%)"
"O=C1CCN(N2C(=O)c3ccc(CN4CCC(c5ccccc5)CC4)cc3C2=O)C(=O)N1 [GT-06803, 2-(2,4-dioxotetrahydropyrimidin-1(2H)-yl)-5-((4-phenylpiperidin-1-yl)methyl)isoindoline-1,3-dione]","B (""B"" is defined as 80%< substrate protein remaining %≤ 100%)","A (""A"" is defined as 0% ≤ substrate protein remaining % ≤ 80%)","B (""B"" is defined as 80%< substrate protein remaining %≤ 100%)","B (""B"" is defined as 80%< substrate protein remaining %≤ 100%)","B (""B"" is defined as 80%< substrate protein remaining %≤ 100%)","B (""B"" is defined as 80%< substrate protein remaining %≤ 100%)"
"O=C1CCN(N2C(=O)c3ccc(CN4CCC(c5cccc(Br)c5)CC4)cc3C2=O)C(=O)N1 [GT-06804, 5-((4-(3-bromophenyl)piperidin-1-yl)methyl)-2-(2,4-dioxotetrahydropyrimidin-1(2H)-yl)isoindoline-1,3-dione]","B (""B"" is defined as 80%< substrate protein remaining %≤ 100%)","A (""A"" is defined as 0% ≤ substrate protein remaining % ≤ 80%)","B (""B"" is defined as 80%< substrate protein remaining %≤ 100%)","B (""B"" is defined as 80%< substrate protein remaining %≤ 100%)","B (""B"" is defined as 80%< substrate protein remaining %≤ 100%)","B (""B"" is defined as 80%< substrate protein remaining %≤ 100%)"
